Test results: patent publication US8691993B2, “Piperidinyl naphthylacetic acids” (Hoffman-La Roche Inc., priority 2011, dated 2014)
pIC50: −log10 of the molar value.

Test system: Th2 cells
Assay: DK-PGD2-Induced IL-13 Production Assay in Th2 Cells
Type: cell-based
Settings: inhibition of IL-13 production; human Th2 cells; 500 nM DK-PGD2; 4 hrs at 37° C.; ELISA
Protocol: DK-PGD2-Induced IL-13 Production Assay in Th2 Cells
Inhibition of 13,14-dihydro-15-keto Prostaglandin D2 (DK-PGD2)-induced IL-13 production in T helper type 2 (Th2) cells was applied to evaluate compound cellular potency.
Cultures of Th2 cells were established from blood of healthy human volunteers according to the following procedure. Peripheral blood mononuclear cells (PBMC) were first isolated from 50 mL of fresh blood by Ficoll-Hypaque density gradient centrifugation, followed by CD4^+ cell purification using a CD4^+ T Cell Isolation Kit II (from Miltenyi Biotec Inc.). The CD4^+ T cells were then differentiated to Th2 cells by culturing the cells in X-VIVO 15® medium (from Cambrex BioScience Walkersville Inc.) containing 10% human AB serum (serum of blood type AB from Invitrogen Corporation), 50 U/mL of recombinant human interleukin-2 (rhIL-2) (from PeproTech Inc.) and 100 ng/mL of recombinant human interleukin-4 (rhIL-4) (from PeproTech Inc.) for 7 days. The Th2 cells were isolated using a CD294 (CRTH2) MicroBead Kit (from Miltenyi Biotec Inc.) and amplified in X-VIVO 15® medium containing 10% human AB serum and 50 U/mL of rhIL-2 for 2 to 5 weeks. In general, 70% to 80% of the Th2 cells used in the assay are CRTH2-positive when analyzed by fluorescence-activated cell sorting using the BM16 antibody (as previously described) conjugated to Alexa Fluor 647.
The spontaneous production of IL-13 by Th2 cells was determined in the absence of DK-PGD2 stimulation and the value was subtracted from that in the presence of each compound for percent inhibition and IC50 calculations.
The percent inhibition of interleukin 13 (IL-13) production for a compound at various concentrations was calculated according to the following formula, [1-(IL-13 production in the presence of compound)/(IL-13 production in the presence of 0.15% DMSO)]×100. The IC50 value, defined as the concentration of a compound that is required for 50% inhibition of IL-13 production, was calculated by fitting the percent inhibition data for 7 concentrations to a sigmoidal dose-response (4 parameter logistic) model in the XLfit® software Excel add-in program [ID Business Solutions Ltd., model 205, where F(x)=(A+(B−A)/(1+((C/x)^D)))].

## Cc1c(CC(=O)O)cc2ccc(F)cc2c1C1CCN(C(=O)Nc2cccc(C(F)(F)F)c2)CC1 [Example 36]
  pIC50: 6.36

## Cc1c(CC(=O)O)cc2ccc(F)cc2c1C1CCN(S(=O)(=O)Cc2ccccc2N)CC1 [Example 27, {4-[1-(2-Amino-phenylmethanesulfonyl)-piperidin-4-yl]-6-fluoro-3-methyl-naphthalen-2-yl}-acetic acid]
  pIC50: 7.57

## Cc1c(CC(=O)O)cc2ccc(F)cc2c1C1CCN(C(=O)Nc2c(F)cccc2F)CC1 [Example 32, {4-[1-(2,6-Difluoro-phenylcarbamoyl)-piperidin-4-yl]-6-fluoro-3-methyl-naphthalen-2-yl}-acetic acid]
  pIC50: 6.43

## Cc1c(CC(=O)O)cc2ccc(F)cc2c1C1CCN(S(=O)(=O)N2CCCC2)CC1 [Example 25, {6-Fluoro-3-methyl-4-[1-(pyrrolidine-1-sulfonyl)-piperidin-4-yl]-naphthalen-2-yl}-acetic acid]
  pIC50: 7.85

## COc1ccccc1S(=O)(=O)N1CCC(c2c(C)c(CC(=O)O)cc3ccc(F)cc23)CC1 [Example 20, {6-Fluoro-4-[1-(2-methoxy-benzenesulfonyl)-piperidin-4-yl]-3-methyl-naphthalen-2-yl}-acetic acid]
  pIC50: 8.05

## Cc1c(CC(=O)O)cc2ccc(F)cc2c1C1CCN(S(=O)(=O)c2cc(Cl)ccc2Cl)CC1 [Example 17, {4-[1-(2,5-Dichloro-benzenesulfonyl)-piperidin-4-yl]-6-fluoro-3-methyl-naphthalen-2-yl}-acetic acid]
  pIC50: 6.92

## Cc1c(CC(=O)O)cc2ccc(F)cc2c1C1CCN(S(=O)(=O)c2cccc(C(F)(F)F)c2)CC1 [Example 23]
  pIC50: 6.58

## Cc1c(CC(=O)O)cc2ccc(F)cc2c1C1CCN(S(=O)(=O)c2ccc(Cl)cc2Cl)CC1 [Example 16, {4-[1-(2,4-Dichloro-benzenesulfonyl)-piperidin-4-yl]-6-fluoro-3-methyl-naphthalen-2-yl}-acetic acid]
  pIC50: 7.66

## Cc1c(CC(=O)O)cc2ccc(F)cc2c1C1CCN(S(C)(=O)=O)CC1 [Example 15, [6-Fluoro-4-(1-methanesulfonyl-piperidin-4-yl)-3-methyl-naphthalen-2-yl]-acetic acid]
  pIC50: 6.85

## Cc1c(CC(=O)O)cc2ccc(F)cc2c1C1CCN(S(=O)(=O)Cc2ccccc2)CC1 [Example 19, [6-Fluoro-3-methyl-4-(1-phenylmethanesulfonyl-piperidin-4-yl)-naphthalen-2-yl]-acetic acid]
  pIC50: 8.10

## Cc1c(CC(=O)O)cc2ccc(F)cc2c1C1CCN(C(=O)c2cc(F)ccc2F)CC1 [Example 30, {4-[1-(2,5-Difluoro-benzoyl)-piperidin-4-yl]-6-fluoro-3-methyl-naphthalen-2-yl}-acetic acid]
  pIC50: 7.08

## Cc1c(CC(=O)O)cc2ccc(F)cc2c1C1CCN(C(=O)c2ccc(Cl)cc2Cl)CC1 [Example 28, {4-[1-(2,4-Dichloro-benzoyl)-piperidin-4-yl]-6-fluoro-3-methyl-naphthalen-2-yl}-acetic acid]
  pIC50: 7.22

## Cc1c(CC(=O)O)cc2ccc(F)cc2c1C1CCN(S(=O)(=O)c2c(Cl)cccc2Cl)CC1 [Example 18, {4-[1-(2,6-Dichloro-benzenesulfonyl)-piperidin-4-yl]-6-fluoro-3-methyl-naphthalen-2-yl}-acetic acid]
  pIC50: 7.24

## Cc1c(CC(=O)O)cc2ccc(F)cc2c1C1CCN(S(=O)(=O)C2CCCC2)CC1 [Example 24, [4-(1-Cyclopentanesulfonyl-piperidin-4-yl)-6-fluoro-3-methyl-naphthalen-2-yl]-acetic acid]
  pIC50: 7.64

## COc1ccccc1NC(=O)N1CCC(c2c(C)c(CC(=O)O)cc3ccc(F)cc23)CC1 [Example 35, {6-Fluoro-4-[1-(2-methoxy-phenylcarbamoyl)-piperidin-4-yl]-3-methyl-naphthalen-2-yl}-acetic acid]
  pIC50: 6.62

## Cc1c(CC(=O)O)cc2ccc(F)cc2c1C1CCN(C(=O)Nc2ccccc2Cl)CC1 [Example 34, {4-[1-(2-Chloro-phenylcarbamoyl)-piperidin-4-yl]-6-fluoro-3-methyl-naphthalen-2-yl}-acetic acid]
  pIC50: 7.23

## Cc1c(CC(=O)O)cc2ccc(F)cc2c1C1CCN(C(=O)Nc2ccc(Cl)cc2Cl)CC1 [Example 33, {4-[1-(2,4-Dichloro-phenylcarbamoyl)-piperidin-4-yl]-6-fluoro-3-methyl-naphthalen-2-yl}-acetic acid]
  pIC50: 7.52

## Cc1c(CC(=O)O)cc2ccc(F)cc2c1C1CCN(C(=O)c2c(Cl)cccc2Cl)CC1 [Example 29, {4-[1-(2,6-Dichloro-benzoyl)-piperidin-4-yl]-6-fluoro-3-methyl-naphthalen-2-yl}-acetic acid]
  pIC50: 7.70

## Cc1c(CC(=O)O)cc2ccc(F)cc2c1C1CCN(S(=O)(=O)Cc2ccc(Cl)cc2)CC1 [Example 22, {4-[1-(4-Chloro-phenylmethanesulfonyl)-piperidin-4-yl]-6-fluoro-3-methyl-naphthalen-2-yl}-acetic acid]
  pIC50: 7.64

## Cc1c(CC(=O)O)cc2ccc(F)cc2c1C1CCN(S(=O)(=O)c2ccccc2Cl)CC1 [Example 14, {4-[1-(2-Chloro-benzenesulfonyl)-piperidin-4-yl]-6-fluoro-3-methyl-naphthalen-2-yl}-acetic acid]
  pIC50: 7.48

## Cc1c(CC(=O)O)cc2ccc(F)cc2c1C1CCN(S(=O)(=O)Cc2ccccc2[N+](=O)[O-])CC1 [Example 26, {6-Fluoro-3-methyl-4-[1-(2-nitro-phenylmethanesulfonyl)-piperidin-4-yl]-naphthalen-2-yl}-acetic acid]
  pIC50: 7.49

## Cc1c(CC(=O)O)cc2ccc(F)cc2c1C1CCN(S(=O)(=O)Cc2cccc(Cl)c2)CC1 [Example 21, {4-[1-(3-Chloro-phenylmethanesulfonyl)-piperidin-4-yl]-6-fluoro-3-methyl-naphthalen-2-yl}-acetic acid]
  pIC50: 7.35

## Cc1c(CC(=O)O)cc2ccc(F)cc2c1C1CCN(C(=O)Cc2ccccc2)CC1 [Example 31, [6-Fluoro-3-methyl-4-(1-phenylacetyl-piperidin-4-yl)-naphthalen-2-yl]-acetic acid]
  pIC50: 6.93
